# Experimental data from paper PMC12021087, “RFWD3 Reprograms Nucleotide Metabolism Through PHGDH to Induce Chemoresistance In Osteosarcoma” (Advanced Science, 2025).
# Molecular target: T1, RFWD3 (Ring Finger and WD Repeat Domain 3) (Homo sapiens, UniProt Q6PCD5)
# T1 construct: endogenous full-length protein in whole lysate of 143B osteosarcoma cells, no tag
# T1 sequence (Q6PCD5 1-774): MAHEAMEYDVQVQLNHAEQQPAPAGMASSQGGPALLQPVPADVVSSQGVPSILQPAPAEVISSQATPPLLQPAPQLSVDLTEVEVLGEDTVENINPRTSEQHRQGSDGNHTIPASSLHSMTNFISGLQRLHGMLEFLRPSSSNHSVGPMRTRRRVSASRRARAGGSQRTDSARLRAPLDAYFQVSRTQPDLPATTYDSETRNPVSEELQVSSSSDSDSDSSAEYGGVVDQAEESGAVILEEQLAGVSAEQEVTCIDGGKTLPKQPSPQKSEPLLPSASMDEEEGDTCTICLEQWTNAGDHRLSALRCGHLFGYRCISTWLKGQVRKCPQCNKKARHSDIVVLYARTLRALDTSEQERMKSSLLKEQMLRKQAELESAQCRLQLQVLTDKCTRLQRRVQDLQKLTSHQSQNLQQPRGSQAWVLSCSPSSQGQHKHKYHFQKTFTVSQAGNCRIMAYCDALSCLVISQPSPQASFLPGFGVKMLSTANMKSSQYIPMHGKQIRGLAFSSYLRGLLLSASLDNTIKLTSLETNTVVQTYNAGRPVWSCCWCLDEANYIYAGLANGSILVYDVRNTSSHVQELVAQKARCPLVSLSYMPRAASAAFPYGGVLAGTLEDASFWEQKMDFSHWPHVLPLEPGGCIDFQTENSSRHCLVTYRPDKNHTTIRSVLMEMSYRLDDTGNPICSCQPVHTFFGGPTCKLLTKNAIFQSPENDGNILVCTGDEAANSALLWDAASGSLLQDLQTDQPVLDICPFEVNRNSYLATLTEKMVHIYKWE
# Experiment: CETSA (lysate, Western blot) and DARTS (pronase)
# Format: biochemical
# Settings: 143B cell lysate; CETSA 10 µM lomitapide, 1 h room temperature, heated 5 min; DARTS 1 and 10 µM lomitapide, 4 h, pronase 2 µg/mL
smiles,measurement,value
O=C(NC1CCN(CCCCC2(C(=O)NCC(F)(F)F)c3ccccc3-c3ccccc32)CC1)c1ccccc1-c1ccc(C(F)(F)F)cc1 [lomitapide],"CETSA (lysate, Western blot) and DARTS (pronase)",lomitapide protected RFWD3 from pronase degradation and significantly enhanced its thermal stability
